Assay results as given in US20080009418A1, “Selective Inhibitors” (Alchemia LTD., priority 2004, published 2008).

What was measured:
Settings in all cases: compound at 10 μM
[1] = target: T1, Human δ-opioid (DOP) (Homo sapiens, UniProt P41143); experiment: Radioligand binding, human δ-opioid (DOP) membranes, FlashPlate, [3H]-Bremazocine
T1 construct: purchased Perkin Elmer Biosignal
How it was run: (§1)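 Cloned human receptor membranes were coated onto FlashPlate wells and incubated with radioligand and compound (added from a 0.5 mM DMSO daughter plate) for 1 hour at room temperature in the dark. Scintillation counting gave percent inhibition, with DMSO defining total and reference ligand defining non-specific binding.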

[2] = target: T2, Human κ-Opioid (KOP) (Homo sapiens, UniProt P41145); experiment: Radioligand binding, human κ-opioid (KOP) membranes, filtration, [3H]-Diprenorphine
T2 construct: purchased Perkin Elmer Biosignal
T2 sequence (P41145 whole entry): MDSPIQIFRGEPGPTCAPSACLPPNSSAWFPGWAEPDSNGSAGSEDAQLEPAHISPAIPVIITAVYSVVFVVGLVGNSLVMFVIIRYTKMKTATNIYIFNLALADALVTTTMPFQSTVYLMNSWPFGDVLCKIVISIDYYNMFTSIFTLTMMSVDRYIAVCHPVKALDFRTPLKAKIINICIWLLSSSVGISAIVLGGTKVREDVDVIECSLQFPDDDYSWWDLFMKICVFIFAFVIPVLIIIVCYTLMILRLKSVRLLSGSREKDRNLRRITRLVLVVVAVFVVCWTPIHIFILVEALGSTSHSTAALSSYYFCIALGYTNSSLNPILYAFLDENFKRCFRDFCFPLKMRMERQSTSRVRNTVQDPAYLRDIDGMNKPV
How it was run: (§2)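 Filtration binding on cloned human receptor membranes (1 Unit/well), [125I]-Substance P for NK1 and [3H]-Diprenorphine for KOP, 1 h at room temperature. Filters PEI-presoaked, washed with cold 50 mM Tris-HCl pH 7.4, counted by scintillation; percent inhibition calculated, reference ligand defining non-specific binding.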

[3] = target: T3, Human Melanocortin (MC3) (Homo sapiens, UniProt P41968); experiment: Radioligand binding, human melanocortin MC3 membranes, FlashPlate, [125I]-NDP-αMSH
T3 construct: purchased Perkin Elmer Biosignal
T3 sequence (P41968 whole entry): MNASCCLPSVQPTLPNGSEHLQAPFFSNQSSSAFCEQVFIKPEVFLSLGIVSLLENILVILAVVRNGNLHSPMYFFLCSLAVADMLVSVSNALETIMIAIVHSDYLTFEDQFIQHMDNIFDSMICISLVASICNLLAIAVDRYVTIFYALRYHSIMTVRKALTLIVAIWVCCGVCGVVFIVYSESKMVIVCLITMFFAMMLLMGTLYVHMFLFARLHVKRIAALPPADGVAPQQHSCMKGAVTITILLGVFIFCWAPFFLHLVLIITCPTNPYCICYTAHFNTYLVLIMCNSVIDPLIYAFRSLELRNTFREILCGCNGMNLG
How it was run: as §1

[4] = target: T4, Human Melanocortin (MC4) (Homo sapiens, UniProt P32245); experiment: Radioligand binding, human melanocortin MC4 membranes, FlashPlate, [125I]-NDP-αMSH
T4 construct: purchased Perkin Elmer Biosignal
T4 sequence (P32245 whole entry): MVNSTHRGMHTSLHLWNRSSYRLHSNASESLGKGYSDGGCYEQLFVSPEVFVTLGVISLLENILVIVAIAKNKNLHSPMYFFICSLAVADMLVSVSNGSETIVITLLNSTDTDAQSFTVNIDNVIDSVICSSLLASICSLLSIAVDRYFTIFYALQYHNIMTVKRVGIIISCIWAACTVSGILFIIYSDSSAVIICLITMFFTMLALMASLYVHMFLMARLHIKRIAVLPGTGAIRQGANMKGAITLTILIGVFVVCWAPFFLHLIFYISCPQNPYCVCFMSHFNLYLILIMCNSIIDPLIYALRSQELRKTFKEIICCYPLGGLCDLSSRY
How it was run: as §1

[5] = target: T5, Human melanocortin (MC5) (Homo sapiens, UniProt P33032); experiment: Radioligand binding, human melanocortin MC5 membranes, FlashPlate, [125I]-NDP-αMSH
T5 construct: purchased Perkin Elmer Biosignal
T5 sequence (P33032 whole entry): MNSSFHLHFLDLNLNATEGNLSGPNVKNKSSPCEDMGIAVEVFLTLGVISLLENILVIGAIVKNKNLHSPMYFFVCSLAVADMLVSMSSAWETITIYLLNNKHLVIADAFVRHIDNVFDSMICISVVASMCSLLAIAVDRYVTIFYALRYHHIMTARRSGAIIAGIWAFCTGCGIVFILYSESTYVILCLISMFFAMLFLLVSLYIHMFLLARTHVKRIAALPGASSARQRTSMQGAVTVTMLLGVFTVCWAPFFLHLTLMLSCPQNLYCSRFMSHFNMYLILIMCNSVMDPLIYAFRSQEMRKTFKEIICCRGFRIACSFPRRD
How it was run: as §1

[6] = target: T6, Human melanin-concentrating hormone (MCH1) (Homo sapiens, UniProt Q99705); experiment: Radioligand binding, human melanin-concentrating hormone MCH1 membranes, FlashPlate, [125I]-S36057
T6 construct: purchased Perkin Elmer Biosignal
T6 sequence (Q99705 whole entry): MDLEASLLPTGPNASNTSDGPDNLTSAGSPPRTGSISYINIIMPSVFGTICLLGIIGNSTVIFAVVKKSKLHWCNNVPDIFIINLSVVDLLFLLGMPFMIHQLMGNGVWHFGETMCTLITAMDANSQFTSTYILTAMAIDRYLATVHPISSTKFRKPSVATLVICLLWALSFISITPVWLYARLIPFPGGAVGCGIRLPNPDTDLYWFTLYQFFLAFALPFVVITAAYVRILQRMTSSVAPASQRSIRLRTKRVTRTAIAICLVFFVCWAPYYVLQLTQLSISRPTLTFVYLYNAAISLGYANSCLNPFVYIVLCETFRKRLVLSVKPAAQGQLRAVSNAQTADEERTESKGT
How it was run: as §1

[7] = target: T7, Human μ-opioid (MOP) (Homo sapiens, UniProt P35372); experiment: Radioligand binding, human μ-opioid (MOP) membranes, FlashPlate, [3H]-Naloxone
T7 construct: purchased Perkin Elmer Biosignal
T7 sequence (P35372 whole entry): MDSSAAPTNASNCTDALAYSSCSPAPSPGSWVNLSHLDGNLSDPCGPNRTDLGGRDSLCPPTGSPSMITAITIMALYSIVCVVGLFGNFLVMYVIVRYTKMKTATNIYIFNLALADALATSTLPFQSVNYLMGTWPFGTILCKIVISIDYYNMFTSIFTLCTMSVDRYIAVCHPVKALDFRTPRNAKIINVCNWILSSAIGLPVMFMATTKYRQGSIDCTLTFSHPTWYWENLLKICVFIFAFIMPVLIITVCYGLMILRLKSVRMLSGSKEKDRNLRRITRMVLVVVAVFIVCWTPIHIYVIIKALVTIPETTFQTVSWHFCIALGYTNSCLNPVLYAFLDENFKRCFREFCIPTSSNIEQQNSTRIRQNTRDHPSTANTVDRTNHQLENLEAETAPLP
How it was run: as §1

[8] = target: T8, Human neurokinin (NK1) (Homo sapiens, UniProt P25103); experiment: Radioligand binding, human neurokinin NK1 membranes, filtration, [125I]-Substance P
T8 construct: purchased Perkin Elmer Biosignal
T8 sequence (P25103 whole entry): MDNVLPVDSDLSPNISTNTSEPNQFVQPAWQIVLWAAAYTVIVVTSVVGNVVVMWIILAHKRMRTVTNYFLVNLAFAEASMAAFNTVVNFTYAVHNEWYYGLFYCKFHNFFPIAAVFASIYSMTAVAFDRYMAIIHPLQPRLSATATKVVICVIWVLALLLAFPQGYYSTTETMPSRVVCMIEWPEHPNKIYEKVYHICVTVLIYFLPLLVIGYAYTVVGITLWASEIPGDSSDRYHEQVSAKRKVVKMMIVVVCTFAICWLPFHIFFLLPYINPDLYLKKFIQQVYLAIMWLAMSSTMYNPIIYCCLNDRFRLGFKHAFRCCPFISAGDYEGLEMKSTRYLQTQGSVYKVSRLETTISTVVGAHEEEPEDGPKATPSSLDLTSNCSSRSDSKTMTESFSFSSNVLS
How it was run: as §2

[9] = target: T9, Human neuropeptide Y (NPY-Y1) (Homo sapiens, UniProt P25929); experiment: Radioligand binding, human neuropeptide Y NPY-Y1 membranes, FlashPlate, [125I]-PYY
T9 construct: purchased Perkin Elmer Biosignal
T9 sequence (P25929 1-384): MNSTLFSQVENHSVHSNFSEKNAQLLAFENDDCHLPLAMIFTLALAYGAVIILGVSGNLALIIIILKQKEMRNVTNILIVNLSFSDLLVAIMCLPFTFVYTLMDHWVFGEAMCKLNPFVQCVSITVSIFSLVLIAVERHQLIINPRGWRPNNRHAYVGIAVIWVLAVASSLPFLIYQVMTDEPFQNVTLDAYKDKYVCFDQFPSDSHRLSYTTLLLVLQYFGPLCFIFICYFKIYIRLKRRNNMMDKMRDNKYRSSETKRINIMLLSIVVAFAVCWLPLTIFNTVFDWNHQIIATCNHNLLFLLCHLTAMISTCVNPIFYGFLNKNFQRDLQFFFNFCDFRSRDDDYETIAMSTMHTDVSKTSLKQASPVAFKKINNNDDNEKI
How it was run: as §1

[10] = target: T10, Human opioid (ORL1) (Homo sapiens, UniProt P41146); experiment: Radioligand binding, human opioid ORL1 membranes, FlashPlate, [125I]-Nociceptin
T10 construct: purchased Perkin Elmer Biosignal
T10 sequence (P41146 whole entry): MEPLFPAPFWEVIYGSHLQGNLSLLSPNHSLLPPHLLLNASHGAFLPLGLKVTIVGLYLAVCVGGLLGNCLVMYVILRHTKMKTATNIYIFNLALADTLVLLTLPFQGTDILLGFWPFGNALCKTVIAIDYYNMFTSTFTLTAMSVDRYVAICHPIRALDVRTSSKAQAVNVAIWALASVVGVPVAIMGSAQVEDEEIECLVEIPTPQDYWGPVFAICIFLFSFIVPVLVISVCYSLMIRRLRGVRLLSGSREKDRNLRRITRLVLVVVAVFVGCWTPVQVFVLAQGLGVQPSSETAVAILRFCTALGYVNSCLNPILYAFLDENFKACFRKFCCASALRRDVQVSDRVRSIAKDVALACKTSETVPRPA
How it was run: as §1

[11] = target: T11, Mouse urotensin (mUR2) (Mus musculus, UniProt Q8VIH9); experiment: Radioligand binding, mouse urotensin mUR2 membranes, FlashPlate, [125I]-Urotensin II
T11 construct: purchased Perkin Elmer Biosignal
T11 sequence (Q8VIH9 1-385): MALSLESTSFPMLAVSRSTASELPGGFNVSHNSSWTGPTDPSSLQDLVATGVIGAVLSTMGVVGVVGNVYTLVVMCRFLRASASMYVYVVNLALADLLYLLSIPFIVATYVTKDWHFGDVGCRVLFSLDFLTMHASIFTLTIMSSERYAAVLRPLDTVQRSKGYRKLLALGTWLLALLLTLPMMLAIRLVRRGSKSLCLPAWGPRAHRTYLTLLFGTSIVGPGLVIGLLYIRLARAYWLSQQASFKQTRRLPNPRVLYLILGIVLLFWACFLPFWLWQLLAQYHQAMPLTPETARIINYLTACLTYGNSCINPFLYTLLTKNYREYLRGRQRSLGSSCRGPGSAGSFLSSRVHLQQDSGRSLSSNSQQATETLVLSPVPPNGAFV
How it was run: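 Cloned mouse urotensin (mUR2) receptor membranes from Perkin Elmer Biosignal were immobilized in FlashPlate microplates using a proprietary coating. Each well got 19.5 μl buffer, then 0.5 μl of DMSO, reference ligand, or compound. Adding 5 μl of [125I]-Urotensin II, diluted to 5× final concentration in binding buffer, started binding. Plates were sealed with TopSeal-A and incubated 1 hour at room temperature in the dark. Wells were counted for 30 seconds each on a TopCount after a 60-second delay, and percentage inhibition was calculated.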

[12] = [125I]-Urotensin II, FlashPlate

T1 sequence (P41143 whole entry): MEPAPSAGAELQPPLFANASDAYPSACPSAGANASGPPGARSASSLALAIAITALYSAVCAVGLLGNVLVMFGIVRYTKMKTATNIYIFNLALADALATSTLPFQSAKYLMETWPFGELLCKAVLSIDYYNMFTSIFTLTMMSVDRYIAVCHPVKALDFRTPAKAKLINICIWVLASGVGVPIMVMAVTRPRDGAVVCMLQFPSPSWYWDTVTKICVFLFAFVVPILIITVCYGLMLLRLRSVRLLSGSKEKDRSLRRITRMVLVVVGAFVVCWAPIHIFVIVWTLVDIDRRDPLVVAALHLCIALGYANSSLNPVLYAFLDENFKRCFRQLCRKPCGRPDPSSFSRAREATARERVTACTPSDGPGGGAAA

NCCC(=O)N[C@H]1C(OCc2ccc3ccccc3c2)O[C@H](COCc2ccc3ccccc3c2)[C@@H](O)[C@@H]1OCc1ccc2ccccc2c1 (stereo partly shown) [compound 442]
A1: inhibition of radioligand binding ([1]; [3H]-Bremazocine, human DOP membranes): − (“−” indicates less than 50% inhibition at 10 μM) | A2: inhibition of radioligand binding ([2]; [3H]-Diprenorphine, human KOP membranes): − (“−” indicates less than 50% inhibition at 10 μM) | A3: inhibition of radioligand binding ([3]; [125I]-NDP-αMSH, human MC3 membranes): + (“+” indicates greater than 50% inhibition at 10 μM) | A4: inhibition of radioligand binding ([4]; [125I]-NDP-αMSH, human MC4 membranes): + (“+” indicates greater than 50% inhibition at 10 μM) | A5: inhibition of radioligand binding ([5]; [125I]-NDP-αMSH, human MC5 membranes): + (“+” indicates greater than 50% inhibition at 10 μM) | A6: inhibition of radioligand binding ([6]; [125I]-S36057, human MCH1 membranes): + (“+” indicates greater than 50% inhibition at 10 μM) | A7: inhibition of radioligand binding ([7]; [3H]-Naloxone, human MOP membranes): − (“−” indicates less than 50% inhibition at 10 μM) | A8: inhibition of radioligand binding ([8]; [125I]-Substance P, human NK1 membranes): + (“+” indicates greater than 50% inhibition at 10 μM) | A9: inhibition of radioligand binding ([9]; [125I]-PYY, human NPY-Y1 membranes): − (“−” indicates less than 50% inhibition at 10 μM) | A10: inhibition of radioligand binding ([10]; [125I]-Nociceptin, human ORL1 membranes): + (“+” indicates greater than 50% inhibition at 10 μM) | A11: inhibition of radioligand binding ([11]; [125I]-Urotensin II, mouse mUR2 membranes): − (“−” indicates less than 50% inhibition at 10 μM)

COCC1OC(OCc2ccc3ccccc3c2)C(NC(=O)CN)C(OCc2ccc3ccccc3c2)C1O (stereo not shown) [compound 246]
A1: inhibition of radioligand binding ([1]; [3H]-Bremazocine, FlashPlate): − (“−” indicates less than 50% inhibition at 10 μM) | A2: inhibition of radioligand binding ([2]; [3H]-Diprenorphine, filtration): − (“−” indicates less than 50% inhibition at 10 μM) | A3: inhibition of radioligand binding ([3]; [125I]-NDP-αMSH, FlashPlate): − (“−” indicates less than 50% inhibition at 10 μM) | A4: inhibition of radioligand binding ([4]; [125I]-NDP-αMSH, FlashPlate): − (“−” indicates less than 50% inhibition at 10 μM) | A5: inhibition of radioligand binding ([5]; [125I]-NDP-αMSH, FlashPlate): − (“−” indicates less than 50% inhibition at 10 μM) | A6: inhibition of radioligand binding ([6]; [125I]-S36057, FlashPlate): − (“−” indicates less than 50% inhibition at 10 μM) | A7: inhibition of radioligand binding ([7]; [3H]-Naloxone, FlashPlate): − (“−” indicates less than 50% inhibition at 10 μM) | A8: inhibition of radioligand binding ([8]; [125I]-Substance P, filtration): + (“+” indicates greater than 50% inhibition at 10 μM) | A9: inhibition of radioligand binding ([9]; [125I]-PYY, FlashPlate): − (“−” indicates less than 50% inhibition at 10 μM) | A10: inhibition of radioligand binding ([10]; [125I]-Nociceptin, FlashPlate): − (“−” indicates less than 50% inhibition at 10 μM) | A11: inhibition of radioligand binding [11, 12]: − (“−” indicates less than 50% inhibition at 10 μM)

CO[C@H]1[C@H](O)[C@@H](COCc2ccc3ccccc3c2)OC(OCc2ccccc2)[C@@H]1NC(=O)CCCN (stereo partly shown) [compound 88]
A1 radioligand binding inhibition ([1]; human δ-opioid (DOP) membranes): − (“−” indicates less than 50% inhibition at 10 μM) | A2 radioligand binding inhibition ([2]; human κ-opioid (KOP) membranes): − (“−” indicates less than 50% inhibition at 10 μM) | A3 radioligand binding inhibition ([3]; human melanocortin MC3 membranes): − (“−” indicates less than 50% inhibition at 10 μM) | A4 radioligand binding inhibition ([4]; human melanocortin MC4 membranes): − (“−” indicates less than 50% inhibition at 10 μM) | A5 radioligand binding inhibition ([5]; human melanocortin MC5 membranes): − (“−” indicates less than 50% inhibition at 10 μM) | A6 radioligand binding inhibition ([6]; human MCH1 membranes): − (“−” indicates less than 50% inhibition at 10 μM) | A7 radioligand binding inhibition ([7]; human μ-opioid (MOP) membranes): − (“−” indicates less than 50% inhibition at 10 μM) | A8 radioligand binding inhibition ([8]; human neurokinin NK1 membranes): + (“+” indicates greater than 50% inhibition at 10 μM) | A9 radioligand binding inhibition ([9]; human NPY-Y1 membranes): − (“−” indicates less than 50% inhibition at 10 μM) | A10 radioligand binding inhibition ([10]; human ORL1 membranes): − (“−” indicates less than 50% inhibition at 10 μM) | A11 radioligand binding inhibition ([11]; mouse urotensin mUR2 membranes): − (“−” indicates less than 50% inhibition at 10 μM)

CSC1OC(COCc2ccc(Cl)cc2)C(O)C(OCc2ccccc2)C1NC(=O)CNC(=N)N (stereo not shown) [compound 253]
A1: inhibition of radioligand binding ([1]; [3H]-Bremazocine, FlashPlate): − (“−” indicates less than 50% inhibition at 10 μM) | A2: inhibition of radioligand binding ([2]; [3H]-Diprenorphine, filtration): − (“−” indicates less than 50% inhibition at 10 μM) | A3: inhibition of radioligand binding ([3]; [125I]-NDP-αMSH, FlashPlate): − (“−” indicates less than 50% inhibition at 10 μM) | A4: inhibition of radioligand binding ([4]; [125I]-NDP-αMSH, FlashPlate): − (“−” indicates less than 50% inhibition at 10 μM) | A5: inhibition of radioligand binding ([5]; [125I]-NDP-αMSH, FlashPlate): + (“+” indicates greater than 50% inhibition at 10 μM) | A6: inhibition of radioligand binding ([6]; [125I]-S36057, FlashPlate): − (“−” indicates less than 50% inhibition at 10 μM) | A7: inhibition of radioligand binding ([7]; [3H]-Naloxone, FlashPlate): − (“−” indicates less than 50% inhibition at 10 μM) | A8: inhibition of radioligand binding ([8]; [125I]-Substance P, filtration): + (“+” indicates greater than 50% inhibition at 10 μM) | A9: inhibition of radioligand binding ([9]; [125I]-PYY, FlashPlate): − (“−” indicates less than 50% inhibition at 10 μM) | A10: inhibition of radioligand binding ([10]; [125I]-Nociceptin, FlashPlate): − (“−” indicates less than 50% inhibition at 10 μM) | A11: inhibition of radioligand binding [11, 12]: − (“−” indicates less than 50% inhibition at 10 μM)

COCC1OC(OCc2ccccc2)C(NC(=O)CCCN)C(OCc2ccccc2)C1O (stereo not shown) [compound 174]
A1 radioligand binding, percentage inhibition ([1]; [3H]-Bremazocine): − (“−” indicates less than 50% inhibition at 10 μM) | A2 radioligand binding, percentage inhibition ([2]; [3H]-Diprenorphine): − (“−” indicates less than 50% inhibition at 10 μM) | A3 radioligand binding, percentage inhibition ([3]; [125I]-NDP-αMSH): − (“−” indicates less than 50% inhibition at 10 μM) | A4 radioligand binding, percentage inhibition ([4]; [125I]-NDP-αMSH): − (“−” indicates less than 50% inhibition at 10 μM) | A5 radioligand binding, percentage inhibition ([5]; [125I]-NDP-αMSH): − (“−” indicates less than 50% inhibition at 10 μM) | A6 radioligand binding, percentage inhibition ([6]; [125I]-S36057): − (“−” indicates less than 50% inhibition at 10 μM) | A7 radioligand binding, percentage inhibition ([7]; [3H]-Naloxone): − (“−” indicates less than 50% inhibition at 10 μM) | A8 radioligand binding, percentage inhibition ([8]; [125I]-Substance P): + (“+” indicates greater than 50% inhibition at 10 μM) | A9 radioligand binding, percentage inhibition ([9]; [125I]-PYY): − (“−” indicates less than 50% inhibition at 10 μM) | A10 radioligand binding, percentage inhibition ([10]; [125I]-Nociceptin): − (“−” indicates less than 50% inhibition at 10 μM) | A11 radioligand binding, percentage inhibition ([11]; [125I]-Urotensin II): − (“−” indicates less than 50% inhibition at 10 μM)
